Measured values from publication PMC9871843 (Clinical Kidney Journal, 2022).

Assay: Safety and tolerability
Type: in vivo, healthy participants (human)
Settings: healthy adults, single oral dose
[1] = safety analysis set, by system organ class

C=CC[C@@H]1/C=C(\C)C[C@H](C)C[C@H](OC)[C@H]2O[C@@](O)(C(=O)C(=O)N3CCCC[C@H]3C(=O)O[C@H](/C(C)=C/[C@@H]3CC[C@@H](O)[C@H](OC)C3)[C@H](C)[C@@H](O)CC1=O)[C@H](C)C[C@@H]2OC [Tacrolimus, tacrolimus]
participants in whom adverse events were reported: seven
Participants with any AE (safety analysis set, N as in column head): 7 (22.6) n (%)
Participants with AEs: Cardiac disorders [1]: 0 n (%)
Participants with AEs: Eye disorders [1]: 1 (3.2) n (%)
Participants with AEs: Gastrointestinal disorders [1]: 2 (6.5) n (%)
Participants with AEs: General disorders and administration site conditions [1]: 1 (3.2) n (%)
Participants with AEs: Infections and infestations [1]: 0 n (%)
Participants with AEs: Injury, poisoning and procedural complications [1]: 1 (3.2) n (%)
Participants with AEs: Musculoskeletal and connective tissue disorders [1]: 1 (3.2) n (%)
Participants with AEs: Nervous system disorders [1]: 3 (9.7) n (%)
Participants with AEs: Renal and urinary disorders [1]: 0 n (%)
Participants with AEs: Respiratory, thoracic and mediastinal disorders [1]: 0 n (%)
